Where two headings read alike, the source gives them in different places.
Experiments:
human JAK1 kinase domain = human JAK1 kinase domain (Homo sapiens (Human), UniProt P23458); assay: JAK1 Inhibition Assay Protocol (Caliper LabChip peptide phosphorylation); type: biochemical; details: enzymatic activity, 25 uM ATP
From the text: (§1) The catalytically active kinase domain of human JAK1, JAK2, JAK3 or TYK2 was purified from extracts of SF9 insect cells infected with a recombinant baculovirus expression vector encoding the human JAK1, JAK2, JAK3 or TYK2 kinase domains (JAK1 amino acid residues N852-D1154 according to the numbering of GenBank sequence accession number P23458, JAK2 amino acid residues D812-G1132 according to the numbering of GenBank sequence accession number NP_004963.1; JAK3 amino acid residues S783-S1124 according to the numbering of GenBank sequence accession number P52333, and TYK2 amino acid residues N873-C1187 according to the numbering of GenBank sequence accession number P29597). The activity of the JAK1, JAK2, JAK3 or TYK2 kinase domains can be measured by a number of direct and indirect methods, including quantification of phosphorylation of peptide substrates derived from the human JAK3 protein (Saltzman et al., Biochem. Biophys. Res. Commun. 246:627-633 (2004)). The activity of the JAK1, JAK2, JAK3 or TYK2 kinase domains was measured in vitro by monitoring phosphorylation of JAK3 derived peptides using the Caliper LabChip technology.
(§2) The activity of the isolated JAK1 or TYK2 kinase domain was measured by monitoring phosphorylation of a peptide derived from JAK3 ([…] fluorescently labeled on the N-terminus with 5-carboxyfluorescein using the Caliper LabChip technology (Caliper Life Sciences, Hopkinton, Mass.). […] Reactions were incubated at 22° C. in 384-well polypropylene microtiter plates for 30 minutes and then stopped by addition of 25 uL of an EDTA containing solution (100 mM Hepes pH 7.2, 0.015% Brij-35, 150 mM EDTA), resulting in a final EDTA concentration of 50 mM. After termination of the kinase reaction, the proportion of phosphorylated product was determined as a fraction of total peptide substrate using the Caliper LabChip 3000 according to the manufacturer's specifications. Ki values were then determined using the Morrison tight binding model (Morrison, J. F., Biochim. Biophys. Acta. 185:269-296 (1969); William, J. W. and Morrison, J. F., Meth. Enzymol., 63:437-467 (1979)).

human JAK3 kinase domain = human JAK3 kinase domain (Homo sapiens (Human), UniProt P52333); assay: biochemical; type: biochemical
human JAK3 kinase domain, sequence (P52333 783-1124): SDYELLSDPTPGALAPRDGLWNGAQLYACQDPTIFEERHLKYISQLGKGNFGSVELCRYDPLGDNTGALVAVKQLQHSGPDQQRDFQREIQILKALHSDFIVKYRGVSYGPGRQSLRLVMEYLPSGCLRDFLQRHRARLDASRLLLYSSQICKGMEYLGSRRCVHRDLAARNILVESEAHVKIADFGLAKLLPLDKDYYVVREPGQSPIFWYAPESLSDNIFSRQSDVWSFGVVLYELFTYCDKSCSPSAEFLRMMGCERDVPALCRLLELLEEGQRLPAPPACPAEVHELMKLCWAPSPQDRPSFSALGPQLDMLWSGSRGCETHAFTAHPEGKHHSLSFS
Procedure: The activity of the JAK1, JAK2, JAK3 or TYK2 kinase domains was measured in vitro by monitoring phosphorylation of JAK3 derived peptides using the Caliper LabChip technology.
as §2, with “JAK3” for “JAK1 or TYK2”, “specifications.” for “specifications. Ki values were then determined using the Morrison tight binding model (Morrison, J. F., Biochim. Biophys. Acta. 185:269-296 (1969); William, J. W. and Morrison, J. F., Meth. Enzymol., 63:437-467 (1979)).”

human TYK2 kinase domain = human TYK2 kinase domain (Homo sapiens (Human), UniProt P29597); assay: TYK2 Inhibition Assay Protocol (Caliper LabChip peptide phosphorylation); type: biochemical; details: enzymatic activity, 25 uM ATP; read-out: TYK2i Ki
human TYK2 kinase domain, sequence (P29597 873-1187): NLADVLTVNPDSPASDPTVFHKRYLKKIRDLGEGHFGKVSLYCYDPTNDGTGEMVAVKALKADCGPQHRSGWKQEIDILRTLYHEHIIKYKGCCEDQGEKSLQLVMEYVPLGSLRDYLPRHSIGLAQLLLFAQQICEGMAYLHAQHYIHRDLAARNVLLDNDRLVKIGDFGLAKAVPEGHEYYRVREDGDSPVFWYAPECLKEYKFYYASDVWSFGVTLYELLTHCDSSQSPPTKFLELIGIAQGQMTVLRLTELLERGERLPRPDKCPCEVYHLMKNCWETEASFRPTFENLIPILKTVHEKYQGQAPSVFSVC
From the text: as §1, §2

[1] = tested on: Set-2 cells, which express the JAK2V617F mutant protein; assay: STAT5 phosphorylation in Set-2 cells (JAK2-dependent signaling, MSD); type: cell-based; details: Homo sapiens, read-out: pSTAT5 SET2 EC50
Procedure: The activities of compounds were determined in cell-based assays that are designed to measure JAK2-dependent signaling or proliferation. Compounds were serially diluted in DMSO and incubated with Set-2 cells (German Collection of Microorganisms and Cell Cultures (DSMZ); Braunschweig, Germany), which express the JAK2V617F mutant protein, in 96-well microtiter plates for 1 hr at 37° C. in RPMI medium at a final cell density of 100,000 cells per well and a final DMSO concentration of 0.57%. Compound-mediated effects on STATS phosphorylation were then measured in the lysates of incubated cells using the Meso Scale Discovery (MSD) technology (Gaithersburg, Md.) according to the manufacturer's protocol and EC50 values were determined. Alternatively, serially diluted compounds were added to 384-well microtiter plates in RPMI medium with 10% fetal bovine serum (Invitrogen Corp.; Carlsbad, Calif.) at a final cell density of 2500 cells per well and a final DMSO concentration of 0.3% and incubated at 37° C. for 72 hours. Cell viability was then determined using the CellTiter-Glo® Luminescent Cell Viability Assay according to the manufacturer's protocol (Promega; Madison, Wis.) and EC50 values were determined.

TF-1 cells = assay: EPO-stimulated STAT5 phosphorylation in TF-1 cells (JAK2-dependent signaling, MSD); type: cell-based; details: Homo sapiens, read-out: EPO pSTAT5 TF1 EC50
Procedure: The activities of compounds were determined in cell-based assays that are designed to measure JAK1 or JAK2-dependent signaling. Compounds were serially diluted in DMSO and incubated with TF-1 cells (American Type Culture Collection (ATCC); Manassas, Va.) in 384-well microtiter plates in OptiMEM medium without phenol red, 1% Charcoal/Dextran stripped FBS, 0.1 mM NEAA, 1 mM sodium pyruvate (Invitrogen Corp.; Carlsbad, Calif.) at a final cell density of 100,000 cells per well and a final DMSO concentration of 0.2%. Human recombinant IL-6 (R&D systems; Minneapolis, Minn.) or EPO (Invitrogen Corp.; Carlsbad, Calif.) was then added at a final concentration of 30 ng/mL or 10 Units/mL, respectively, to the microtiter plates containing the TF-1 cells and compound and the plates were incubated for 30 min at 37° C. Compound-mediated effects on STAT3 or STATS phosphorylation were then measured in the lysates of cells incubated in the presence of IL-6 or EPO, respectively, using the Meso Scale Discovery (MSD) technology (Gaithersburg, Md.) according to the manufacturer's protocol and EC50 values were determined.

[2] = enzymatic activity, 5 uM ATP, read-out: JAK3 Ki
[3] = 0.5 h, TF-1 cells, EPO 10 Units/mL, 30 min

human JAK1 kinase domain, sequence (P23458 852-1154): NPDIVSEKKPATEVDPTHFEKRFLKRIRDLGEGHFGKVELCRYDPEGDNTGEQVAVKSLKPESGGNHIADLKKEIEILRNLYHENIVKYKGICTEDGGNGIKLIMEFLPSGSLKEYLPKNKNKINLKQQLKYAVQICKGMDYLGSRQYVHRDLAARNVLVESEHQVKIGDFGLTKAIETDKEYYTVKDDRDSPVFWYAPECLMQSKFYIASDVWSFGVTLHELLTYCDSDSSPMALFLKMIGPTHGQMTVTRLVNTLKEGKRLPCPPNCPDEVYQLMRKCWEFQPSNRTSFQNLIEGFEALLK

## Cc1cc(NC(=O)c2cnn3ccc(Nc4cccc(C(F)(F)F)c4)nc23)on1 [Example 240, 5-(3-Trifluoromethyl-phenylamino)-pyrazolo-[1,5-a]pyrimidine-3-carboxylic acid (3-methyl-isoxazol-5-yl)-amide]
Human JAK1 kinase domain
  Ki: 36 nM
Human JAK3 kinase domain; [2]
  Ki: 95.1 nM
Human TYK2 kinase domain
  Ki: 62.4 nM
[1]; Set-2 cells, 1 hr incubation
  EC50: 365 nM
TF-1 cells; [3]
  EC50: 735 nM

## Cc1cc(NC(=O)c2cnn3ccc(N)nc23)n(-c2cc(Cl)ccc2C)n1 [Example 226]
Human JAK1 kinase domain
  Ki: 7.4 nM
Human JAK3 kinase domain; [2]
  Ki: 15.7 nM
Human TYK2 kinase domain
  Ki: 32.8 nM
[1]; Set-2 cells, 1 hr incubation
  EC50: 17 nM
TF-1 cells; [3]
  EC50: 103 nM

## Cc1cc(NC(=O)c2cnn3ccc(N)nc23)n(-c2ccccc2C)n1 [Example 343, 5-Amino-pyrazolo[1,5-a]-pyrimidine-3-carboxylic acid (5-methyl-2-o-tolyl-2H-pyrazol-3-yl)-amide]
Human JAK1 kinase domain
  Ki: 29.9 nM
Human JAK3 kinase domain; [2]
  Ki: 28.6 nM
Human TYK2 kinase domain
  Ki: 97.6 nM
[1]; Set-2 cells, 1 hr incubation
  EC50: 301 nM
TF-1 cells; [3]
  EC50: 368 nM

## Cc1nc(-c2ccccc2C)c(NC(=O)c2cnn3ccc(N)nc23)s1 [Example 231, 5-amino-pyrazolo[1,5-a]pyrimidine-3-carboxylic acid (2-methyl-4-o-tolyl-thiazol-5-yl)-amide]
Human JAK1 kinase domain
  Ki: 15.2 nM
Human JAK3 kinase domain; [2]
  Ki: 12.4 nM
Human TYK2 kinase domain
  Ki: 43.8 nM
[1]; SET-2, 1 h
  EC50: 80.2 nM
TF-1 cells; TF-1, 0.5 h
  EC50: 230 nM

## O=C(NC1CCOCC1)c1cnn2ccc(NC3Cc4ccccc4C3)nc12 [Example 297, 5-(Indan-2-ylamino)-pyrazolo[1,5-a]pyrimidine-3-carboxylic acid (tetrahydro-pyran-4-yl)-amide]
Human JAK1 kinase domain
  Ki: 46.6 nM
Human JAK3 kinase domain; [2]
  Ki: 39.7 nM
Human TYK2 kinase domain
  Ki: 152 nM
[1]; Set-2 cells, 1 hr incubation
  EC50: 170 nM
TF-1 cells; [3]
  EC50: 207 nM

## O=C(N[C@H]1CC[C@H](O)CC1)c1cnn2ccc(NC3CCc4ccccc43)nc12 (stereo partly shown) [Example 299, 5-(Indan-1-ylamino)-pyrazolo[1,5-a]pyrimidine-3-carboxylic acid (4-hydroxy-cyclohexyl)-amide]
Human JAK1 kinase domain
  Ki: 28.7 nM
Human JAK3 kinase domain
  Ki: 14.5 nM
Human TYK2 kinase domain
  Ki: 50.9 nM
[1]; Set-2 cells, 1 hr incubation
  EC50: 256 nM
TF-1 cells; [3]
  EC50: 228 nM

## Nc1ccn2ncc(C(=O)Nc3ccnn3-c3cc(Cl)ccc3Cl)c2n1 [Example 277, 5-Amino-pyrazolo[1,5-a]-pyrimidine-3-carboxylic acid [2-(2,5-dichloro-phenyl)-2H-pyrazol-3-yl]-amide]
Human JAK1 kinase domain
  Ki: 17.6 nM
Human JAK3 kinase domain; [2]
  Ki: 25.4 nM
Human TYK2 kinase domain
  Ki: 43.5 nM
[1]; Set-2 cells, 1 hr incubation
  EC50: 43.4 nM
TF-1 cells; [3]
  EC50: 148 nM

## Nc1ccn2ncc(C(=O)Nc3c[nH]nc3-c3cc(Cl)ccc3Cl)c2n1 [Example 248, 5-Amino-pyrazolo[1,5-a]-pyrimidine-3-carboxylic acid [3-(2,5-dichloro-phenyl)-1H-pyrazol-4-yl]-amide]
Human JAK1 kinase domain
  Ki: 2.8 nM
Human JAK3 kinase domain; [2]
  Ki: 1.7 nM
Human TYK2 kinase domain
  Ki: 4.1 nM
[1]; Set-2 cells, 1 hr incubation
  EC50: 18 nM
TF-1 cells; [3]
  EC50: 55.3 nM
